Results: US20240315989A1 (priority 2021, published 2024)
“And” between values parts separate entries of the source, which are not always exact repeats. Equal values may be shown once. Read-outs that look alike come from different tables or passages of the source.

How the values were obtained:
[1] = system: LPS-induced cytokine production; conditions: human peripheral blood; cited from earlier work
[2] = system: COVID-19 (SARS-CoV-2 infection); conditions: cited from earlier work
[3] = system: COVID-19
[4] = system: COVID-19 (SARS-CoV-2 infection)
[5] = system: COVID-19; conditions: follow-up questionnaire
[6] = depending on formulation; cited from earlier work
[7] = system: COVID-19; remark: listed apart in the source
[8] = system: α1-, α2-, β-adrenergic, muscarinic, dopamine D2, histamine H1, GABA-benzodiazepine, opiate, 5-HT1, or 5-HT2 receptors; conditions: cited from earlier work
[9] = system: experimental autoimmune encephalomyelitis (EAE); conditions: cited from earlier work
[10] = system: LPS- or fecal slurry-induced inflammatory response; conditions: cited from earlier work; for Survival: wildtype mice, LPS, IRE1-mediated inflammation, fecal-induced peritonitis
[11] = Bayesian, moderately optimistic prior
[12] = Intent to Treat Analysis, all randomized
[13] = per protocol, fluvoxamine group
[14] = intent to treat analysis of 1649 participants
[15] = pooled, fluvoxamine vs blinded placebo
[16] = two randomized trials pooled, intent to treat

COCCCC/C(=N\OCCN)c1ccc(C(F)(F)F)cc1.O=C(O)/C=C\C(=O)O [fluvoxamine, 5-methoxy-4′-(trifluoromethyl)valerophenone-(E)-O-(2-aminoethyl)oxime maleate (1:1)]
LPS-induced cytokine production by human cells [1]: reduce LPS-induced cytokine production | Incidence of hospitalization ([2]; 50 mg twice daily, 14 days): 0% | Patients hospitalized, number of 65 ([2]; 14 days): no patients and 0 of 65 | Patients hospitalized, number of 65 ([2]; 14 days, listed as FLV): 0/65 | Persistent residual / ongoing symptoms at 14 days ([2]; Day 14): 0% | Persons with persistent residual / ongoing symptoms at 14 days, number of 65 ([2]; Day 14): 0/65 and zero | Persons with persistent residual / ongoing symptoms at 14 days, number of 65 ([2]; Day 14, listed as FLV): 0/65 | Probability RR <1 [3, 11]: 97.2% | Probability RR ≤0.9 [3, 11]: 89.9% | Probability RR <1 ([3]; Bayesian, weakly neutral prior): 94.1% | Probability RR ≤0.9 ([3]; Bayesian, weakly neutral prior): 81.6% | Probability RR <1 ([3]; Frequentist analysis): 98.3% | Probability RR ≤0.9 ([3]; Frequentist analysis): 91.1% | Probability of at least a moderate effect ([3]; frequentist meta-analysis): 91.1% | Probability that fluvoxamine prevents hospitalization ([3]; frequentist meta-analysis): 98.3% | Hospitalization or extended emergency room visit due to COVID-19, HR [4]: 0.77 | Patients with any interaction with a COVID-19 emergency setting, No. [4]: 180 | Period of hospitalization, estimated treatment effect [4]: 1.23 | Progression to severe COVID (FDA categorization), % of patients [4]: 10.1% | Proportion of primary outcome events, % [4]: 3.6% | Time on mechanical ventilator, estimated treatment effect [4]: 1.03 | Primary outcome events (retention in COVID-19 emergency setting >6 h or transfer to tertiary hospital), No. of patients ([4]; 100 mg): 79 | Proportion of primary outcome events, % ([4]; 24 h): 10.5% | Probability of superiority (event rate lower than placebo) ([4]; ITT population): 99.8% | Primary outcome events, % of patients ([4]; ITT, of 741, 28 days): 11% | Primary outcome events, n/N [4, 12]: (79/741) | Proportion of primary outcome events (retention in COVID-19 emergency setting >6 hours or transfer to tertiary hospital), % [4, 12]: 10.7% | Primary outcome events (retention in a COVID-19 emergency setting or transfer to tertiary hospital due to COVID-19), % ([4]; Intention-to-treat analysis, N 741): (11%) | Primary outcome events, n/N ([4]; Modified Intent to Treat Analysis, received ≥24 hours of study medicine): (78/740) | Primary outcome events (retention in a COVID-19 emergency setting or transfer to tertiary hospital due to COVID-19), % ([4]; Modified intention-to-treat analysis, N 740): (11%) | Primary outcome events, n/N ([4]; Per Protocol, received 80% of study medicine prior to any deterioration): (20/548) | All-cause hospitalization, n/N ([4]; TOGETHER, fluvoxamine group): 76/741 | Death, intention to treat, % ([4]; TOGETHER, fluvoxamine group): (2%) | Death, intention to treat, n/N ([4]; TOGETHER, fluvoxamine group): 17/741 | Hospitalized for COVID, n/N ([4]; TOGETHER, fluvoxamine group): 75/741 | Probability that event rate was lower than placebo ([4]; mITT population): 99.7% | Time to death ([4]; median, fluvoxamine group): 17 days | Death, per protocol, % [4, 13]: (<1%) | Death, per protocol, n/N [4, 13]: 1/548 | Deaths, No. ([4]; per-protocol population): one | Reduction in risk of death (mortality) ([4]; per-protocol, took at least 80% of pills): 91% | Deaths, No. ([4]; primary intention-to-treat analysis): 17 | Number needed to treat ([4]; primary outcome): 20 | Hospitalization or extended emergency room visit due to COVID-19, n_Fluvoxamine ([4]; subgroup Age <=50): 23 | Hospitalization or extended emergency room visit due to COVID-19, HR ([4]; subgroup Age <=50, vs placebo): 0.57 | Hospitalization or extended emergency room visit due to COVID-19, HR ([4]; subgroup Age >50, vs placebo): 0.67 | Hospitalization or extended emergency room visit due to COVID-19, n_Fluvoxamine ([4]; subgroup BMI (Kg/m^2) >30): 44 | Hospitalization or extended emergency room visit due to COVID-19, HR ([4]; subgroup BMI (Kg/m^2) >30, vs placebo): 0.64 | Hospitalization or extended emergency room visit due to COVID-19, HR ([4]; subgroup Cardiovascular disease N, vs placebo): 0.67 | Hospitalization or extended emergency room visit due to COVID-19, n_Fluvoxamine ([4]; subgroup Cardiovascular disease Y): 0 | Hospitalization or extended emergency room visit due to COVID-19, n_Fluvoxamine ([4]; subgroup Chronic kidney disease N): 78 | Hospitalization or extended emergency room visit due to COVID-19, n_Fluvoxamine ([4]; subgroup Chronic kidney disease Y): 1 | Hospitalization or extended emergency room visit due to COVID-19, n_Fluvoxamine ([4]; subgroup Sex Female): 28 | Hospitalization or extended emergency room visit due to COVID-19, n_Fluvoxamine ([4]; subgroup Sex Male): 51 | Hospitalization or extended emergency room visit due to COVID-19, HR ([4]; subgroup Sex Male, vs placebo): 0.80 | Hospitalization or extended emergency room visit due to COVID-19, HR ([4]; subgroup Smoking status Current, vs placebo): 0.80 | Hospitalization or extended emergency room visit due to COVID-19, n_Fluvoxamine ([4]; subgroup Smoking status Former): 10 | Hospitalization or extended emergency room visit due to COVID-19, HR ([4]; subgroup Smoking status Former, vs placebo): 0.46 | Hospitalization or extended emergency room visit due to COVID-19, n_Fluvoxamine ([4]; subgroup Time from onset of symptoms 0-3 days): 30 | Time to death, estimated treatment effect ([4]; unadjusted hazard ratio, fluvoxamine vs placebo): 0.80 | Death, intention to treat, estimated treatment effect ([4]; unadjusted odds ratio, fluvoxamine vs placebo): 0.69 | Ache in chest wall (ribs/sternum) present during the course of COVID-19, % [5]: (33%) | Ache in chest wall (ribs/sternum) present within past 48 hours at follow-up, % [5]: (11%) | Chest pain that worsens when taking a deep breath, present during the course of COVID-19, % [5]: (37%) | Chest pain that worsens when taking a deep breath, present within past 48 hours at follow-up, % [5]: (17%) | Chest pressure present during the course of COVID-19, % [5]: (54%) | Chest pressure present within past 48 hours at time of follow-up, % [5]: (17%) | Chest tightness present during the course of COVID-19, % [5]: (54%) | Chest tightness present within past 48 hours at follow-up, % [5]: (17%) | Pain deep inside the chest present during the course of COVID-19, % [5]: (31%) | Pain deep inside the chest present within past 48 hours at follow-up, % [5]: (9%) | Sharp chest pains present during the course of COVID-19, % [5]: (33%) | Sharp chest pains present within past 48 hours at follow-up, % [5]: (13%) | half-life [6]: 9 to 28 h | reduction in hospitalizations [7, 14]: Summary of the two randomized clinical trial data demonstrate a 25% | reduction in progression to severe disease with hypoxia ≤92%, ER visit >6 hour (with hypoxia), or hospitalizations [7, 14]: reduction in hospitalizations and 36% reduction in progression to severe | reduction in hospitalizations ([7]; intent to treat, vs placebo): 25% | Number needed to treat ([7]; pooled): approximately 20 | Hospitalization, Absolute Risk Reduction [7, 15]: 3.1% | Mortality, Absolute Risk Reduction [7, 15]: 0.9% | Progression to Severe COVID-19, Absolute Risk Reduction [7, 15]: 5.4% | Hospitalization, % [7, 16]: 9.3% | Hospitalization, n/N [7, 16]: (76/821) | Mortality, % [7, 16]: 2.1% | Mortality, n/N [7, 16]: (17/821) | Progression to Severe COVID-19 (Hospitalization or ER Visit >6 hr or Hypoxia <92%), % [7, 16]: 9.6% | Progression to Severe COVID-19, n/N [7, 16]: (79/821) | Affinity for α1-, α2-, β-adrenergic, muscarinic, dopamine D2, histamine H1, GABA-benzodiazepine, opiate, 5-HT1, or 5-HT2 receptors [8]: negligible affinity | Severity of EAE ([9]; rats, also when treatment began 12 days post-induction): reduces the severity | IFN-γ serum levels ([9]; vs untreated EAE rats): decrease | IL-4 serum levels ([9]; vs untreated EAE rats): increase | Effect on endotoxic shock-induced death ([10]; S1R KO animals): no significant effect | Cytokine levels ([10]; wildtype mice exposed to LPS or fecal slurry): reduced cytokine levels | Survival [10]: increased survival | Survival ([10]; listed as FLV): enhanced survival | Maximum dose tolerated over 15 days 200 mg/day (100 twice daily), % (STOP COVID trial dosing): (45%) | Maximum dose tolerated over 15 days 200 mg/day (100 twice daily), Number (STOP COVID trial dosing): 36 | Maximum dose tolerated over 15 days 300 mg/day (100 three times daily), % (STOP COVID trial dosing): (50%) | Maximum dose tolerated over 15 days 300 mg/day (100 three times daily), Number (STOP COVID trial dosing): 40 | Not able to reach 200 mg/day, % (STOP COVID trial dosing): (5%) | Not able to reach 200 mg/day, Number (STOP COVID trial dosing): 4 | Acute on chronic respiratory failure, % (StopCovid, N = 80): (0%) | Acute on chronic respiratory failure, number (StopCovid, N = 80): 0 | Bacterial infection, % (StopCovid, N = 80): (1.3%) | Bacterial infection, number (StopCovid, N = 80): 1 | Chest pain or tightness, % (StopCovid, N = 80): (0%) | Chest pain or tightness, number (StopCovid, N = 80): 0 | Fever, % (StopCovid, N = 80): (0%) | Fever, number (StopCovid, N = 80): 0 | Flank pain, % (StopCovid, N = 80): (0%) | Flank pain, number (StopCovid, N = 80): 0 | Gastroenteritis, nausea, or vomiting, % (StopCovid, N = 80): (1.3%) | Gastroenteritis, nausea, or vomiting, number (StopCovid, N = 80): 1 | Headache or head pain, % (StopCovid, N = 80): (2.5%) | Headache or head pain, number (StopCovid, N = 80): 2 | Number of patients with any serious adverse event (StopCovid, N = 80): 1 | Number of patients with any serious adverse event, % (StopCovid, N = 80): (1.3%) | Number with any adverse event (StopCovid, N = 80): 12 | Number with any adverse event, % (StopCovid, N = 80): (15%) | Pneumonia, % (StopCovid, N = 80): (3.8%) | Pneumonia, number (StopCovid, N = 80): 3 | Shortness of breath, % (StopCovid, N = 80): (2.5%) | Shortness of breath, number (StopCovid, N = 80): 2 | Teeth chattering, % (StopCovid, N = 80): (1.3%) | Teeth chattering, number (StopCovid, N = 80): 1 | Vasovagal syncope, % (StopCovid, N = 80): (1.3%) | Vasovagal syncope, number (StopCovid, N = 80): 1 | hypercapnia, % (StopCovid, N = 80): (0%) | hypercapnia, number (StopCovid, N = 80): 0 | muscle aches, % (StopCovid, N = 80): (1.3%) | muscle aches, number (StopCovid, N = 80): 1 | Acute respiratory failure, No. of adverse events (%) (n = 80, 15 days): 0 No. (%) | Bacterial infection, No. of adverse events (%) (n = 80, 15 days): 1 (1.3) No. (%) | Chest pain or tightness, No. of adverse events (%) (n = 80, 15 days): 0 No. (%) | Fever, No. of adverse events (%) (n = 80, 15 days): 0 No. (%) | Flank pain, No. of adverse events (%) (n = 80, 15 days): 0 No. (%) | Gastroenteritis, nausea, or vomiting, No. of adverse events (%) (n = 80, 15 days): 1 (1.3) No. (%) | Headache or head pain, No. of adverse events (%) (n = 80, 15 days): 2 (2.5) No. (%) | Hypercapnia, No. of adverse events (%) (n = 80, 15 days): 0 No. (%) | Muscle aches, No. of adverse events (%) (n = 80, 15 days): 1 (1.3) No. (%) | Other adverse events, by No. of patients (%) (n = 80, 15 days): 11 (13.8) No. (%) | Pneumonia, No. of adverse events (%) (n = 80, 15 days): 3 (3.8) No. (%) | Serious adverse events, by No. of patients (%) (n = 80, 15 days): 1 (1.3) No. (%) | Shortness of breath, No. of adverse events (%) (n = 80, 15 days): 2 (2.5) No. (%) | Teeth chattering, No. of adverse events (%) (n = 80, 15 days): 1 (1.3) No. (%) | Vasovagal syncope, No. of adverse events (%) (n = 80, 15 days): 1 (1.3) No. (%)
